In patent US20240342685A1, “ABSORBENT COMPOUNDS FOR CAPTURING CARBON DIOXIDE” (The Regents of the University of California, priority 2021, published 2024):
Like-named read-outs stand apart in the source and are kept apart here.

Experiments:
[1] = cited from earlier work
[2] = Aspen Plus absorber/stripper process model, CO2 vapor liquid equilibrium; conditions: 11% mole fraction
Text: For example, the suitability of a PEP variant for non-enzymatic carbon capture can be evaluated by modeling. The Electric Power Research Institute (EPRI; Palo Alto, CA) maintains and operates Aspen Plus process models based on the absorber/stripper configuration shown in FIG. 21 and standard operational parameters (e.g., as described in the Examples). These models are configured to accept generalized solvent (absorbent) properties and calculate the resulting energy penalty. Model inputs can include the solubility, viscosity, and heat capacity of the PEP variant, as well as the CO2 vapor liquid equilibrium (VLE) of the underlying carbon capture reaction equilibrium (absorption/desorption). VLE describes the number of moles CO2 per unit volume solution absorbed via reaction and dissolution as a function of CO2 partial pressure above solution. […] At higher temperature (e.g., 120° C. stripper), reactants are favored and HCO3 desorbs, releasing CO2 back into the gas phase for capture and compression. The difference ACO2 between these temperature extremes determines the absorption capacity of the solvent, or cyclic capacity of the absorber/stripper system.
These models can be used to quantify the energy penalty of a PEP variant for carbon capture chemistry relative to the MEA benchmark. […] The improvement can be evaluated at the temperatures of the absorber (40° C.) and stripper (120° C.).

[3] = Shear viscosity by Green-Kubo relation, MD simulation; conditions: aqueous solution
Experimental: These simulations were performed under the same conditions and with the same forcefield as the PEP simulations. The shear viscosity of a liquid can be computed through several different atomistic simulation methods. […] In this method, the shear viscosity is obtained from the integral over time of the pressure tensor autocorrelation function: where V is the volume of the system, kB is the Boltzmann constant, T is temperature, Pxy denotes the element xy of the pressure tensor, and the angle bracket refers to the ensemble average. Viscosity plays an important role in pumping costs for moving aqueous PEP solutions between the absorber and stripper.

[4] = in water at 298 K; non-reactive MD literature; cited from earlier work
[5] = pure water; cited from earlier work

CC(=O)O [Acetic Acid]
Enthalpy of Solution, Literature value ([1]; 3 m to 4 m): -0.0461 kcal/mol | Enthalpy of Solution, Literature value ([1]; 3 m to 5 m): -0.0418 kcal/mol | Enthalpy of Solution, Literature value ([1]; 4 m to 5 m): -0.088 kcal/mol

O=CO [Formic Acid]
Enthalpy of Solution, Literature value ([1]; 3 m to 4 m): 0 kcal/mol | Enthalpy of Solution, Literature value ([1]; 3 m to 5 m): 0 kcal/mol | Enthalpy of Solution, Literature value ([1]; 4 m to 5 m): 0 kcal/mol

NCCO [MEA, monoethanolamine]
CO2 remaining bound in solution during absorber-stripper cycling ([2]; CCNG): 16% | CO2 remaining bound in solution during absorber-stripper cycling ([2]; SCPC): 29%

C=C(OP(=O)(O)O)C(=O)O [PEP, phosphoenolpyruvate]
viscosity relative to the standard MEA solution ([3]; 45 to 55 wt %): roughly triple | real viscosity ([3]; 45 to 55 wt % (9.8 mol %), estimated): about 3 mPa*s

O=C(O)O [bicarbonate]
diffusion coefficient, published literature [4]: 1.17×10^−9 m^2s^−1

O [water]
viscosity, expected value [5]: around 0.79 mPa·s
